According to patent US20260013442A1, “METHOD FOR VEGETATIVE PROPAGATION OF PLANTS” (LETAVIS AB, priority 2020, published 2026):

Assays:
[1] = tested on: potato tubers of the summer variety Perlo; assay: Potato tubers treated with oxytocin before pre-sprouting in sunlight; format: in vivo; conditions: nineteen days of pre-sprouting
Procedure: Potato tubers of the summer variety Perlo were pre-sprouting in sunlight after treatment with either tap water, 1 μM oxytocin or 10 μm oxytocin for 6 or 24 hours. For each treatment, 8 tubers were treated by placing them in plastic vessels and covered them with the respective test solution. After treatment, the tubers were pre-sprouted in sunlight at about 20° C. Nineteen days later, the number of sprouts were counted for each tuber and the length per sprout was measured.

[2] = tested on: cuttings from rose No. 1 (garden rose bush); assay: Callus/root formation on cuttings from rose No. 1 in oxytocin solution; format: in vivo; conditions: for Grading of callus formation: grading 0-8
Procedure: (§1) Cuttings, about 7 cm long, from the top of a branch of two different roses (rose No. 1 and rose No. 2) and cut directly under a node were put into 100 ml Erlenmeyer flasks with concentrations of oxytocin from 0 to 10 μM (0, 0.5, 1, 2.5, 5 and 10 μM) in tap water. Two cuttings were added to each Erlenmeyer flask. Thereafter, the Erlenmeyer flasks were placed in a growing room under a light intensity of 800 μmol*m^−2*s^−1.
Cuttings in this experiment were taken from a garden rose bush. […] A grading of the effect of different oxytocin concentrations on the formation of callus from the cuttings can be seen in Table 1. Callus can easily be explained as an accumulation of cells that has not developed into any specific tissue, such as root tissues. Best coverage of callus on the cutting surface of the cuttings was obtained at a concentration of oxytocin of 2.5 μM (FIG. 1).

[3] = tested on: rose cuttings; assay: Effect of different concentrations of oxytocin on cuttings of roses (58 days); format: in vivo; conditions: for Total No. roots: 4 E-flasks with 2 cuttings; for Number of cuttings with roots / Number of living cuttings / Per cutting No. roots / Per cutting Number of side shoots >10 mm / Per cutting mm root / Vitality: n = 8; for Vitality: grading 0-5
Procedure: On Feb. 11, 2020, cuttings from purchased pots with roses were put into 100 ml Erlenmeyer flasks (E-flasks) with a concentration of oxytocin from 0 to 50 μM (0, 0.5, 1, 5, 10, 20 and 50 μM). The experiment consisted of four E-flasks per concentration with two cuttings in each E-flask. The E-flasks were covered with aluminum foil and placed in a culture room. From day 45, measurements were made every 4-5 days. At day 58, the trial was interrupted.

[4] = tested on: cuttings from hibiscuses; assay: Effect of oxytocin on cuttings of hibiscus; format: in vivo; conditions: 90 days
Description: […] Five cuttings per treatment were used.
The flasks were covered with aluminum foil and the flasks were kept at room temperature in a window.
The experiment was allowed to run for 90 days whereafter the development of calluses and roots was documented.

[5] = tested on: cuttings from rose No. 2 (mini rose); assay: Callus/root formation on cuttings from rose No. 2 in oxytocin solution; format: in vivo; conditions: for Grading of callus formation: grading 0-8
Procedure: as §1
Cuttings in this experiment was taken from the small rose bushes in pot bought in a flower shop (mini rose), and put into Erlenmeyer flasks. […] Best effect was obtained at 10 μM oxytocin, followed closely by 2.5 μM oxytocin.
Vigorous development of callus indicates high potential for root formation. To study this effect, the Erlenmeyer flasks with the cuttings from the experiment with rose No. 2 have been covered with aluminium foil.

[6] = tested on: cut flowers of roses of the variety Furiosa; assay: Root growth of stalks of cut flowers of the variety Furiosa; format: in vivo, rose
Procedure: Cut flowers of roses of the variety Furiosa, which had obtained at least 2 side shoots from the stalk, were put in water to allow the side shoots to continue to grow. When the side shoots had reached a length of about 5 cm, the stalk was cut by some mm under the lowest side shoot, which was also removed from the stalk. The stalks were then put into 100 ml Erlenmeyer flasks with either water alone or an oxytocin solution. The solution contained either 1, 4 or 8 μM oxytocin. The liquid in the Erlenmeyer flasks was darkened by coating the flasks with aluminium foil. The flasks were placed in daylight.

[7] = 5 μM oxytocin, 31 days, 2 cuttings

oxytocin
percentage increase of long sprouts (over 5 mm) compared to tap water for 6 hours ([1]; 1 μM oxytocin for 6 hours): 124%
percentage increase in number of shoots compared to tap water for 6 hours ([1]; 1 μM oxytocin for 24 hours): 34.6%
percentage increase of long sprouts (over 5 mm) compared to tap water for 6 hours ([1]; 1 μM oxytocin for 24 hours): 112.5%
percentage increase of long sprouts (over 5 mm) compared to tap water for 6 hours ([1]; 10 μM oxytocin for 6 hours): 100%
percentage increase in number of shoots compared to tap water for 6 hours ([1]; 10 μM oxytocin for 24 hours): 37.5%
Grading of callus formation ([2]; 0.5 μM oxytocin, 31 days, 2 cuttings): 6
Grading of callus formation ([2]; 1 μM oxytocin, 31 days, 2 cuttings): 4
Grading of callus formation ([2]; 2.5 μM oxytocin, 31 days, 2 cuttings): 7
small roots formed [2, 7]: one
Grading of callus formation [2, 7]: 6
length of root developed from callus ([2]; 5 μM oxytocin, one of the two cuttings): 2-3 mm
Grading of callus formation ([2]; 10 μM oxytocin, 31 days, 2 cuttings): 5
leaf aging ([2]; 5-10 μM oxytocin): inhibit leaf aging
concentration with best coverage of callus on the cutting surface ([2]; 31 days, tested 0-10 μM): 2.5 µM
Root length Mean length ([3]; 0.5 μM oxytocin, 58 days): 13.3 mm
Total No. roots ([3]; 0.5 μM oxytocin, 58 days): 26
Number of cuttings with roots ([3]; 0.5 μM oxytocin, 58 days): 5
Number of living cuttings ([3]; 0.5 μM oxytocin, 58 days): 7
Per cutting No. roots ([3]; 0.5 μM oxytocin, 58 days): 3.3
Per cutting Number of side shoots >10 mm ([3]; 0.5 μM oxytocin, 58 days): 0.4
Per cutting mm root ([3]; 0.5 μM oxytocin, 58 days): 43 mm
Vitality ([3]; 0.5 μM oxytocin, 58 days): 2.6
Root length Mean length ([3]; 1 μM oxytocin, 58 days): 17.4 mm
Total No. roots ([3]; 1 μM oxytocin, 58 days): 55
Number of cuttings with roots ([3]; 1 μM oxytocin, 58 days): 6
Number of living cuttings ([3]; 1 μM oxytocin, 58 days): 8
Per cutting No. roots ([3]; 1 μM oxytocin, 58 days): 6.9
Per cutting Number of side shoots >10 mm ([3]; 1 μM oxytocin, 58 days): 1
Per cutting mm root ([3]; 1 μM oxytocin, 58 days): 119 mm
Vitality ([3]; 1 μM oxytocin, 58 days): 3.5
time after which all cuttings had developed roots ([3]; 5 μM oxytocin): 50 days
Root length Mean length ([3]; 5 μM oxytocin, 58 days): 11.6 mm
Total No. roots ([3]; 5 μM oxytocin, 58 days): 51
Number of cuttings with roots ([3]; 5 μM oxytocin, 58 days): 7
Number of living cuttings ([3]; 5 μM oxytocin, 58 days): 7
Per cutting No. roots ([3]; 5 μM oxytocin, 58 days): 6.4
Per cutting Number of side shoots >10 mm ([3]; 5 μM oxytocin, 58 days): 0.6
Per cutting mm root ([3]; 5 μM oxytocin, 58 days): 76 mm
Vitality ([3]; 5 μM oxytocin, 58 days): 2.5
cuttings that had developed roots ([3]; 5 μM oxytocin, day 45): five out of seven
delay until all cuttings had roots, compared with 5 μM oxytocin ([3]; 10 μM and 50 μM oxytocin): 4 to 8 days
Root length Mean length ([3]; 10 μM oxytocin, 58 days): 11.4 mm
Total No. roots ([3]; 10 μM oxytocin, 58 days): 46
Number of cuttings with roots ([3]; 10 μM oxytocin, 58 days): 7
Number of living cuttings ([3]; 10 μM oxytocin, 58 days): 7
Per cutting No. roots ([3]; 10 μM oxytocin, 58 days): 5.8
Per cutting Number of side shoots >10 mm ([3]; 10 μM oxytocin, 58 days): 0.5
Per cutting mm root ([3]; 10 μM oxytocin, 58 days): 66 mm
Vitality ([3]; 10 μM oxytocin, 58 days): 2.9
Root length Mean length ([3]; 20 μM oxytocin, 58 days): 12.7 mm
Total No. roots ([3]; 20 μM oxytocin, 58 days): 46
Number of cuttings with roots ([3]; 20 μM oxytocin, 58 days): 5
Number of living cuttings ([3]; 20 μM oxytocin, 58 days): 6
Per cutting No. roots ([3]; 20 μM oxytocin, 58 days): 5.8
Per cutting Number of side shoots >10 mm ([3]; 20 μM oxytocin, 58 days): 0.5
Per cutting mm root ([3]; 20 μM oxytocin, 58 days): 72 mm
Vitality ([3]; 20 μM oxytocin, 58 days): 2.3
Root length Mean length ([3]; 50 μM oxytocin, 58 days): 10.0 mm
Total No. roots ([3]; 50 μM oxytocin, 58 days): 52
Number of cuttings with roots ([3]; 50 μM oxytocin, 58 days): 8
Number of living cuttings ([3]; 50 μM oxytocin, 58 days): 8
Per cutting No. roots ([3]; 50 μM oxytocin, 58 days): 6.5
Per cutting Number of side shoots >10 mm ([3]; 50 μM oxytocin, 58 days): 0.4
Per cutting mm root ([3]; 50 μM oxytocin, 58 days): 65 mm
Vitality ([3]; 50 μM oxytocin, 58 days): 3.5
cuttings that had developed callus ([3]; 50 μM oxytocin, day 45): all cuttings
cuttings that had calluses ([3]; 1, 5 and 10 μM oxytocin, day 45): all but one of the living cuttings
concentration giving most roots and longest total length of roots per cutting ([3]; 6 cuttings per concentration (FIG. 7)): 1 µM
concentration most potent for callus and roots at nodes higher up on the stem ([3]; 58 days, tested 0-50 μM): 20 µM
total amount of roots formed, average over concentrations ([3]; concentrations of 1 M and above, 58 days, compared to 30 at 0 μM): 50.5 mm
Number of cuttings that had developed calluses ([4]; 1 μM oxytocin, five cuttings): One
Number of cuttings that had developed a root ([4]; 5 μM oxytocin, five cuttings): one
Number of cuttings that had developed calluses ([4]; 5 μM oxytocin, five cuttings): One
root length ([4]; 5 μM oxytocin, one cutting): ~2 mm
Number of cuttings that had developed calluses ([4]; 10 μM oxytocin, five cuttings): two
Grading of callus formation ([5]; 0.5 μM oxytocin, 24 days, 2 cuttings): 2
root formation ([5]; 0.5 μM oxytocin, nineteen days after day 24, flasks covered with aluminium foil): roots had been formed in all treatments except in 0.5 μM oxytocin
Grading of callus formation ([5]; 1 μM oxytocin, 24 days, 2 cuttings): 3
Grading of callus formation ([5]; 2.5 μM oxytocin, 24 days, 2 cuttings): 6
Grading of callus formation ([5]; 5 μM oxytocin, 24 days, 2 cuttings): 1
cuttings showing root development ([5]; 5 μM oxytocin, nineteen days after day 24, 2 cuttings): one of the two cuttings
Grading of callus formation ([5]; 10 μM oxytocin, 24 days, 2 cuttings): 7
development of roots from cuttings ([5]; 1-10 μM oxytocin): stimulated the development of roots
root development ([5]; 2.5 and 10 μM oxytocin, nineteen days after day 24): Root development was best
leaf aging ([5]; 5-10 μM oxytocin): inhibit leaf aging
concentration with best effect on development of callus ([5]; 24 days, tested 0-10 μM): 10 µM
root quality of stalk ([6]; 1 μM oxytocin, one month after the 2.5 months): showed the best root
survival of stalks ([6]; 4 μM oxytocin, one month after the 2.5 months, secondary fungal growth): had died due to a secondary fungal growth
root formation on stalks ([6]; 1, 4 or 8 μM oxytocin, after about 2.5 months, untreated had died): obtained roots
root growth on stalks ([6]; 1 and 8 μM oxytocin, one month after the 2.5 months): roots had grown much longer
